These results are taken from patent publication US6656971B2, “Trisubstituted carbocyclic cyclophilin binding compounds and their use” (Guilford Pharmaceuticals Inc., priority 2001, dated 2003).

In the first test the target is T1, recombinant rat CyPA-GST fusion protein (Rattus norvegicus, UniProt P10111).
T1 construct: made in house; host or cells: E. coli BL21
T1 sequence (P10111 2-164): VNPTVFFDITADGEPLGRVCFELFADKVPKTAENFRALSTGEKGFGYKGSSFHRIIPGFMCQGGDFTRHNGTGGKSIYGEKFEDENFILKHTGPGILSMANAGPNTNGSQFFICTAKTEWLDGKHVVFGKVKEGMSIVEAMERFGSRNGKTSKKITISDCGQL
Briefly: Rotamase (PPIase) inhibition, chymotrypsin-coupled cuvette assay, rat CyPA-GST fusion protein. Format: biochemical. As to conditions: Table A, value with asterisk: recombinant rat CyPA-GST fusion protein.
As a reminder, the IC50 is the concentration at which inhibition is half-maximal. Take `S=C(Nc1cc(Cl)cc(Cl)c1)Nc1ccc(Nc2ccc(Cl)cc2)c(NC(=S)Nc2cc(Cl)cc(Cl)c2)c1` [Compound 36, [(3,5-dichlorophenyl)amino]{[3-({[(3,5-dichlorophenyl)amino]thioxo-methyl}amino)-4-[(4-chlorophenyl)amino]phenyl]amino}methane-1-thione]: the IC50 came to 609 nM.

Take `COc1ccc(NC(=S)NC(=O)c2ccccc2)cc1COc1cc(Cl)cc(Cl)c1` [Compound 46, 1-[3-(3,5-Dichlorophenoxy)methyl-4-methoxyphenyl]-3-benzoylthiourea]: the IC50 was determined as 3770 nM.

On to `O=C(Nc1cc(S(=O)(=O)NC(c2ccccc2)c2ccccc2)ccc1Cl)c1cc(Cl)cc(Cl)c1` [Compound 52, (3,5-Dichlorophenyl)-N-(5-{[(diphenylmethyl)amino]sulfonyl}-2-chlorophenyl)formamide], for which the IC50 came to 861 nM.

Take `COc1ccc(NS(=O)(=O)c2cccc3ccccc23)cc1OCCc1cccc2ccccc12` [Compound 50]: the IC50 stood at 978 nM.

Turning to `COc1ccc(NC(=O)c2cccc3ccccc23)cc1OCc1cccc2ccccc12` [Compound 47, N-[4-methoxy-3-(naphthylmethoxy)phenyl]naphthylformamide], the IC50 is 1220 nM.

As for `COc1ccc(NC(=S)Nc2cc(Cl)cc(Cl)c2)cc1COc1cc(Cl)cc(Cl)c1` [Compound 45, 1-[3-(3,5-Dichlorophenoxy)methyl-4-methoxyphenyl]-3-(3,5-dichlorophenyl)thiourea], the IC50 is 609 nM.

As to `COc1ccc(NC(=O)Nc2cc(Cl)cc(Cl)c2)cc1OCc1cc(Cl)cc(Cl)c1` [Compound 28, 1-(3,5-Dichlorophenyl)-3-[3-(3,5-dichlorobenzyloxy)-4-methoxyphenyl]urea], the half-inhibitory concentration (IC50) worked out at 914 nM.

With `O=C(Nc1ccc(Cl)c(C(=O)c2ccccc2)c1)c1cc(Cl)cc(Cl)c1` [Compound 51, (3,5-Dichlorophenyl)-N-[4-chloro-3-(phenylcarbonyl)phenyl]formamide], the concentration for half-maximal inhibition (IC50) was 1550 nM.

The target of another test is human recombinant CyPA (Homo sapiens, UniProt P62937). Briefly: Semiautomated microtiter plate assay of rotamase activity inhibition, human recombinant CyPA. Format: biochemical. The settings on record: Table B, value without asterisk: human recombinant CyPA. As for the experimental part: Rotamase inhibition was determined using a semiautomated microtiter plate assay modification of the above described assay [see Küllertz et al., Clin. Chem. 44, 502-508 (1998)]. All dilutions of CyPA, peptide substrate, and chymotrypsin were made in 35 mM ice-cold HEPES buffer. Fifty μL of CyPA solution is added to 50 μL of the peptide substrate solution (Phe-Pro-Phe p-nitroanilide, 0.16 mg/ml) in a glass microtiter well plate (the concentration of human recombinant CyP being adjusted so that the reaction rate is increased by a factor of 3 as compared to an uncatalyzed control reaction wherein the peptide substrate is degraded by chymotrypsin alone, in the absence of CyPA and test compound). Using a Beckman Multimek™ 96 automated 96-channel pipettor, 5 μL of test compound solution, or a DMSO blank, were added to each well for a 30 minute preincubation at 4° C. One hundred μL of chymotrypsin solution (1 mg/mL) were added to each well and the absorbance at 390 nm versus time was monitored for 9-10 minutes using a BioRad Ultramark plate reader maintained at 4° C. and the rate constants were determined from the absorbance versus time data files.
human recombinant CyPA, sequence (P62937 whole entry): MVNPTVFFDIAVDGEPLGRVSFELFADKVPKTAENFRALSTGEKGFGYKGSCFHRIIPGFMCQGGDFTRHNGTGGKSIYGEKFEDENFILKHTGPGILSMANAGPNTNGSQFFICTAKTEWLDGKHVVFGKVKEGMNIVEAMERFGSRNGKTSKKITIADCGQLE
IC50 values which were obtained for representative compounds are presented in the following Table B. The cyclophilin utilized was a human recombinant CyPA. […] While CyP A was used in these examples, other CyP proteins can be substituted.
“[(3,5-dichlorophenyl)amino]{[3-({[(3,5-dichlorophenyl) amino]thioxo-methyl}amino)-4-(3,5-dimethylpyrazolyl)phenyl]amino}methane-1-thione [Compound 39]”: the IC50 was determined as 1120 nM.

Take `O=C(Nc1cc(COc2ccc(Cl)c(Cl)c2)cc(NC(=O)c2cc(Cl)cc(Cl)c2)c1)c1cc(Cl)cc(Cl)c1` [Compound 6, 1,3-(3,5-Dichlorophenyl)-N-[5-(3,4-dichlorophenoxymethyl)-phenyl]amide]: the IC50 came to 3790 nM.

`O=C(CCCCc1ccccc1)Nc1cc(Br)cc(C(=O)NNC(=S)Nc2ccc(Cl)c(Cl)c2)c1` [Compound 53, 1-{3-[(5-Phenyl)valeroylamino]-5-bromobenzoyl}-4-(3,4-dichlorophenyl) thiosemicarbazide]: the IC50 came out at 392 nM.

As for `O=C(Nc1cc(CNCc2cccc3ccccc23)cc(NC(=O)c2cccc(C(F)(F)F)c2)c1)c1cccc(C(F)(F)F)c1` [Compound 14, N-(5-{[(naphthylmethyl)amino]methyl}-3-{[3-(trifluoromethyl)phenyl]carbonyl-amino}phenyl)[3-(trifluoromethyl)phenyl]formamide], the IC50 was 15100 nM.

With `O=C(NCCc1ccc(Cl)c(Cl)c1)c1cc(COc2ccc(Cl)c(Cl)c2)cc(C(=O)NCCc2ccc(Cl)c(Cl)c2)c1` [Compound 19, 1-[(3,4-dichlorophenyl)oxymethy]-3,5-bis-{[2-(3,4-dichlorophenyl)ethyl]aminocarbonyl}benzene], the IC50 was 2800 nM.

Regarding `O=C(Nc1cc(CN2C(=O)c3ccccc3C2=O)cc(NC(=O)c2cccc(C(F)(F)F)c2)c1)c1cccc(C(F)(F)F)c1` [Compound 12, N-(5-[(1,3-dioxoisoindolin-2-yl)methyl]-3-{[3-(trifluoromethyl)phenyl]carbonylamino}phenyl)[3-(trifluoromethyl)phenyl]formamide], the IC50 came out at 7710 nM.

Take `O=C(Nc1cccc(C(F)(F)F)c1)c1cc(C(=O)Nc2cccc(C(F)(F)F)c2)cc(-c2ccc3ccccc3c2)c1` [Compound 18, (5-(2-naphthyl)-3-{N-[3-(trifluoromethyl)phenyl]carbamoyl}phenyl)-N-[3-(trifluoromethyl)phenyl]formamide]: the half-inhibitory concentration (IC50) was 1320 nM.

In the case of “(5-(2-(2-naphthyl)ethyl)-3-{N-[3-(trifluoromethyl)phenyl]carbamoyl}phenyl)-N-[3-(trifluoromethyl)phenyl]formamide [Compound 24]”, the IC50 was found to be 7170 nM.

Regarding `O=C(Nc1cccc(C(F)(F)F)c1)c1cc(C(=O)Nc2cccc(C(F)(F)F)c2)cc(-c2cccc3ccccc23)c1` [Compound 3, 5-Naphthalen-1-yl-N,N′-bis-(3-trifluoromethyl-phenyl)isophthalamide], the IC50 worked out at 3420 nM.

As to `O=C(Nc1cccc(C(F)(F)F)c1)c1cc(Oc2ccc3ccccc3c2)cc(C(=O)Nc2cccc(C(F)(F)F)c2)c1` [Compound 17, (5-(2-naphthyloxy)-3-{N-[3-(trifluoromethyl)phenyl]carbamoyl}phenyl)-N-[3-(trifluoromethyl)phenyl]formamide], the IC50 worked out at 1980 nM.

On to `O=S(=O)(c1cc(Cl)cc(Cl)c1)N(c1ccc(Br)c(N(S(=O)(=O)c2cc(Cl)cc(Cl)c2)S(=O)(=O)c2cc(Cl)cc(Cl)c2)c1)S(=O)(=O)c1cc(Cl)cc(Cl)c1` [Compound 30, bis[(3,5-dichlorophenyl)sulfonyl](3-{bis[(3,5-dichlorophenyl)sulfonyl]amino)-4-bromophenyl)amine], for which the IC50 stood at 10000 nM.

For `S=C(Nc1cc(Cl)cc(Cl)c1)Nc1cc(NC(=S)Nc2cc(Cl)cc(Cl)c2)cc(Nc2ccc(Br)cc2)c1` [Compound 11, [(3,5-dichlorophenyl)amino]{[3-({[(3,5-dichlorophenyl)amino]thioxomethyl}amino)-5-[(4-bromophenyl)amino]phenyl]amino}methane-1-thione], the IC50 was found to be 807 nM.

In the case of `O=C(Nc1cccc(C(F)(F)F)c1)c1cc(OCc2ccccc2)cc(OCc2ccccc2)c1` [Compound 8, 3,5-Di(benzyloxy)-3′-(trifluoromethyl)benzanilid], the IC50 is 4760 nM.

With `O=C(Nc1cccc(C(F)(F)F)c1)c1cc(O)cc(C(=O)Nc2cccc(C(F)(F)F)c2)c1` [Compound 2, 5-Hydroxy-N,N′-bis-(3-trifluoromethyl-phenyl)-isophthalamide], the IC50 turned out to be 15900 nM.

Regarding `O=S(=O)(Nc1cc(COc2ccc(Cl)c(Cl)c2)cc(NS(=O)(=O)c2cccc3ccccc23)c1)c1cccc2ccccc12` [Compound 7, 1,3-(1-Naphthalene)-N-[5-(3,4-dichloro-phenoxymethyl)-phenyl]-sulfonamide], the IC50 was 2110 nM.

`S=C(Nc1cc(Cl)cc(Cl)c1)Nc1ccc(Nc2ccc(Oc3ccccc3)cc2)c(NC(=S)Nc2cc(Cl)cc(Cl)c2)c1` [Compound 40, [(3,5-dichlorophenyl)amino]{[3-({[(3,5-dichlorophenyl)amino]thioxomethyl}amino)-4-[(4-phenoxyphenyl)amino]phenyl]amino}methane-1-thione]: the IC50 was determined as 719 nM.

Take “3-{3,5-Bis-[3-(3,5-dichlorophenyl)ureido]-phenyl}propionic acid methyl ester [Compound 5]”: the IC50 is 1300 nM.

As to `COC(=O)CCc1cc(NC(=O)Nc2cc(Cl)cc(Cl)c2)cc(NC(=O)Nc2cc(Cl)cc(Cl)c2)c1` [Compound 1, 3-{3,5-Bis-[3-(3,5-dichloro-phenyl)-ureido]-phenyl}-propionic acid methyl ester], the IC50 came to 2940 nM.

On to `CS/C(=N\c1cc(Cl)cc(Cl)c1)Nc1cc(NC(=O)c2cc(Cl)cc(Cl)c2)cc(Nc2cccc(C(F)(F)F)c2)c1` [Compound 9, N-(5-{[2-aza-2-(3,5-dichlorophenyl)-1-methylthiovinyl]amino}-3-{[3-(trifluoromethyl)phenyl]amino}phenyl)(3,5-dichlorophenyl)formamide], for which the IC50 worked out at 1580 nM.

As to `CC(C)(C)OC(=O)NCCCCCCNC(=O)c1cc(NC(=O)Nc2cc(Cl)cc(Cl)c2)cc(C(=O)Nc2cccc(C(F)(F)F)c2)c1` [Compound 4, {6-[3-[3-(3,5-Dichloro-phenyl)-ureido]-5-(3-trifluoromethyl-phenylcarbamoyl)-benzoylamino]hexyl}carbamic acid tert-butyl ester], the concentration for half-maximal inhibition (IC50) stood at 833 nM.

In the case of “(5-(2-(2-5,6,7,8-tetrahydronaphthyl)ethyl)-3-{N-[3-(trifluoromethyl)phenyl]carbamoyl}phenyl)-N-[3-(trifluoromethyl)phenyl]formamide [Compound 23]”, the IC50 amounted to 7850 nM.

Consider “(3,5-dichlorophenyl)-N-[5-({[(3,5-dichlorophenyl)amino]thioxomethyl}amino)-3-{[3-(trifluoromethyl)phenyl]amino }phenyl]formamide [Compound 10]”, for which the IC50 amounted to 933 nM.

Turning to `N#Cc1cccc(NC(=O)c2cc(OCc3ccc(-c4ccccc4C#N)cc3)cc(C(=O)Nc3cccc(C#N)c3)c2)c1` [Compound 22, 1-[4-(2-cyanophenyl)benzyl]loxy-3,5-bis-[(3-cyanophenyl)aminocarbonyl]benzene], the IC50 stood at 4710 nM.
